# Assay results taken from publication PMC7412561, “Conjugates of Chitosan and Calcium Alginate with Oligoproline and Oligohydroxyproline Derivatives for Potential Use in Regenerative Medicine” (Materials, 2020).
# Non-standard residues stand in square brackets, D forms with d. Hyp = O=C(O)[C@@H]1C[C@@H](O)CN1
# Tested on: endothelial cell line EA.hy 926
# Assay: MTT test (cell metabolic activity / cytotoxicity)
# Format: cell-based
# Details: EA.h 926 cells incubated with peptide for 1 day and for 7 days; concentration range 10 μM to 10 mM; compared with Control− (medium only); five replicates, average
# Experimental: The endothelial cell line EA.hy 926 (ATCC, Manassas, VA, USA) was used. The MTT test was performed using endothelial cells of the EA.hy 926 line. The extracts (2 mg/mL) were incubated in DMEM (Corning) for 48 h at 37 °C. Cells were seeded into a 96-well plate with 1 × 10^4 cells per well and grown under standard conditions (37 °C, 5% CO2 in humid air). The next day, the medium was replaced with extracts. After 24 h of treatment, the culture medium was removed and replaced with the MTT solution (1 mg/mL, Sigma Aldrich, Poznan, Poland) and incubated for 2 h in an incubator. The MTT solution was then decanted and 100 µL of isopropanol (Sigma Aldrich, Poznan, Poland) was added to each well. Absorbance was measured at 570 nm and 650 nm for the reference using a microplate reader (Victor X4 Perkin Elmer, PerkinElmer, Inc. Waltham, MA, USA). Cells cultured for 48 h in DMEM were used as a negative control. As a positive control were used cells incubated for 24 h, followed by the addition of DMSO, which were then cultured for another 24 h. Three samples of each type were tested and the results were presented as a percentage of the negative control with the standard deviation. Statistical significance was assessed using one-way ANOVA analysis of variance. Values for which the value **p < 0.001, ** p < 0.01, *p < 0.05 were considered statistically significant.
# All the peptides were also assessed in terms of their cytotoxicity against the endothelial cell line EA.h 926. No cytotoxicity was observed (Figure 6) both for incubating cells in the presence of peptides 1–5 for 1 day (Figure 6a) and for 7 days (Figure 6b). Cells cultured in medium without the addition of any substances or harmful agents were used as the Control^− (K^−), while cells treated with DMSO on the second day of incubation were used as the Control^+ (K^+). The dimethyl sulfoxide (DMSO) was added to a final concentration of 5%. An MTT test was used to assess the cytotoxicity of peptides 1–5. […] The tests were performed in the concentration range of 10 μM and 10 mM.
# Figure 6 Results of cell metabolic activity by using 3-(4,5-dimethylthiazol-2-yl)-2,5-diphenyltetrazolium bromide (MTT test) of the endothelial cell line EA.h 926 cultured in the presence of peptides 1–5, panel (a)—cells incubated in the presence of peptides for 1 day, panel (b)—cells incubated in the presence of peptides for 7 days. Cytotoxicity tests were performed in five replicates. The presented results are average values. Statistical significance was assessed using one-way ANOVA analysis of variance. Values for which the value **p < 0.001, ** p < 0.01, *p < 0.05 were considered statistically significant (see Supplementary Materials, Figure S1).
# In the final stage of the research, we studied the effects of covalently linked conjugates of peptides 2‒5 with chitosan and alginate (Figure 10) on the endothelial cell line EA.hy 926. Experiments were performed for incubation of cells for 1 day (Figure 10a) and 7 days (Figure 10b) to check the effect of alginate and chitosan conjugates with peptides 2‒5 both in the short and long term, which is important from the point of view of the usefulness of materials used in regenerative medicine. As the Control^‒ (K^‒) were again used cells cultured in the medium without the addition of any substances or any harmful factors, while as the Control^+ (K^+) were used cell cultures killed by adding DMSO on the second day of incubation. DMSO was added to give a 5% final concentration in the culture medium. Unmodified chitosan and calcium alginate were also studied. […] Cell viability relative to the […] was reduced by more than 75%. The adverse effect of calcium alginate on the endothelial cell line EA.hy 926 may result from the exchange of Ca^2+ ions from the polysaccharide matrix for monovalent Na^+ and/or K^+ ions, causing the release of large amounts of Ca^2+ ions into the culture medium. This in turn may adversely affect the endothelial cells. […]
row,Substance,cytotoxic effect of peptides (MTT test)
1,H-(Pro)9-OH [Peptide 3],No cytotoxic effect
2,H-(Hyp)9-OH [Peptide 5],No cytotoxic effect
3,"H-G[Hyp]PA[Hyp]P-OH (SMILES C[C@H](NC(=O)[C@@H]1CCCN1C(=O)[C@@H]1C[C@@H](O)CN1C(=O)CN)C(=O)N1C[C@H](O)C[C@H]1C(=O)N1CCC[C@H]1C(=O)O) [Peptide 1, model collagen fragment, reference compound]",No cytotoxic effect
4,H-(Pro)6-OH [Peptide 2],No cytotoxic effect
5,H-(Hyp)6-OH [Peptide 4],No cytotoxic effect

# Same assay, conditions: EA.h 926 cells; 10 mM peptide
row,Substance,cytotoxicity at the highest tested concentration (MTT)
1,H-(Pro)9-OH [Peptide 3],comparable toxicity to that at 100 μM
